Laboratory results from patent US8609651B2, “Pharmaceutical compositions of benzodiazepines and method of use thereof” (Jazz Pharmaceuticals, Inc., priority 2006, dated 2013).
Converted amounts (≈) assume the structure as drawn. Read-outs that look alike come from different tables or passages of the source.

Tests used:
[1] = Solubility of clonazepam in neat solvents
Method: The solubility of clonazepam in a number of neat solvents was determined using standard methods.

[2] = Psychomotor, cognitive and subjective tests in volunteers; type: in vivo; details: human
[3] = Solubility of clonazepam in glycol ethers at 25° C.; details: neat solvent, organic solvent or mixture, thermodynamic from solid
Method: 10 mg of clonazepam was weighed into glass vials used in the Pfeiffer mono-dose spray system (Pfeiffer of America, Princeton, N.J.). Four samples of each of four solvents were prepared as follows. 130-μL of each solvent was pipetted into the vial, which was then stoppered with a black chlorobutyl rubber stopper.
The vials were removed from the chamber, placed inside polyethylene centrifuge vials, and centrifuged for 2 minutes at 5000 rpm. 10 μL of liquid was then sampled from each vial, accurately weighed, and diluted with 1 mL of acetonitrile. The drug concentration was analyzed by UV using an Agilent HPLC system with no column, 10 μL injection volume, acetonitrile mobile phase, 0.3 mL/min and UV detection at 350 nm.

[4] = Saturated solubility in receiver fluid systems (HPLC); details: 37 °C, thermodynamic from solid
Method: Following the stability studies, a suitable receiver fluid was developed in order to ensure that sink conditions for tested drug were such that the drug release was limited by the solubility of the drug in the receiver fluid. […] Briefly, drug was saturated into different receiver fluid systems by adding excess drug and allowed to stir with a magnetic flea over a period of 2 h at 37° C. Each saturated solution was then filtered using a 0.2 μm syringe filter and the resultant solution was assayed via HPLC.
Calibration curves for clonazepam were constructed between 0.2 to 10 μg/mL with appropriate replicates to ensure repeatability and linearity.
Standards were prepared in receiver fluid (10% ethanol in buffer 6). […] The filtration at room temperature was performed as quickly as possible to minimize any drug precipitation as the temperature dropped from 37° C. during filtration.

[5] = Drug recovery, degradation and binding to nasal sheep mucosa; type: in vitro ADME; details: sheep nasal mucosa (excised tissue) in buffer, 37° C., read-out: % recovery in the presence of nasal sheep mucosa
Method: (i) Drug recovery, degradation and binding to nasal sheep mucosa: The effect of drug recovery, degradation and binding to sheep nasal mucosa was determined. Briefly, a known surface area (approx. 1 cm^2) of sheep nasal mucosa was added into a glass vial containing a known concentration (10 μg/mL) of each drug prepared in the receiver fluid (10% ethanol in pH 6 buffer). The content of the vial was allowed to equilibrate at 37° C. over a period of 48 h. At 24 h intervals, a sample was removed and assayed via HPLC. The percentage of drug recovered was calculated using Equation 4: % drug recovered=(drug concentration at t=Y/drug concentration at t=Z)×100 (Equation 4)
where, Y=specific time point at 37° C. (in the presence of nasal sheep mucosa); and Z=specific time point at 37° C. (in the absence of nasal sheep mucosa).
In addition to the stability against heat degradation, the effect of drug binding or degradation in the presence of nasal sheep mucosa was also determined (Table 6).

`O=C1CN=C(c2ccccc2Cl)c2cc([N+](=O)[O-])ccc2N1` [Clonazepam, 5-(2-chlorophenyl)-1,3-dihydro-7-nitro-2H-1,4-benzodiazepin-2-one] showed a solubility ([1]; PEG 200 (neat solvent), organic solvent or mixture) of 30.3 mg/mL (≈ 96 mM), a solubility ([1]; PEG 300 (neat solvent), organic solvent or mixture) of 37 mg/mL (≈ 117 mM) and a solubility ([1]; Transcutol (neat solvent), organic solvent or mixture) of 38.7 mg/mL (≈ 123 mM). The solubility ([1]; glycofurol (neat solvent), organic solvent or mixture) was 67.3 mg/mL (≈ 213 mM), the solubility ([1]; propylene glycol (neat solvent), organic solvent or mixture) was 3.4 mg/mL (≈ 10.8 mM) and the solubility ([1]; triacetin (neat solvent), organic solvent or mixture) was 5.8 mg/mL (≈ 18.4 mM). The solubility ([1]; water) was less than 0.1 mg/mL, the “time at which psychomotor and subjective effects were first apparent” value (shortened to “time”) ([2]; intranasal) was “approximately 30 minutes” and the “time” value ([2]; intravenous) was “approximately 30 minutes”. The “time” value ([2]; oral) was “approximately 2 hours”, the solubility ([3]; 1,2-dimethyxoethane) was 39.3 mg/mL (≈ 124 mM) and the solubility ([3]; di(ethylene glycol) diethyl ether) was 19 mg/mL (≈ 60.2 mM). It also gave a solubility ([3]; di(ethylene glycol) methyl ether) of 56.4 mg/mL (≈ 179 mM), a solubility ([3]; diethylene glycol monoethyl ether (DEGEE)) of 41.8 mg/mL (≈ 132 mM) and a solubility at 2 h ([4]; pH 6, aqueous buffer, buffer pH 6, 37° C.) of 0.0137 mg/mL (≈ 0.0433 mM). The solubility at 2 h ([4]; pH 6, aqueous with cosolvent or surfactant or cyclodextrin, 20% ethanol in buffer pH6, 37° C.) was 0.0823 mg/mL (≈ 0.261 mM), the solubility at 2 h ([4]; pH 6, aqueous with cosolvent or surfactant or cyclodextrin, receiver solution, 10% ethanol in buffer pH 6, 37° C.) was 0.0293 mg/mL (≈ 0.0929 mM) and the recovery at 24 h, 10 μg/mL ([5]; buffer pH 5 (10% ethanol)) was 97.8%. For the same compound, the recovery at 48 h, 10 μg/mL ([5]; buffer pH 5 (10% ethanol)) was 96.5%, the recovery at 24 h, 10 μg/mL ([5]; buffer pH 6 (10% ethanol)) was 97.5% and the recovery at 48 h, 10 μg/mL ([5]; buffer pH 6 (10% ethanol)) was 97.1%. It also gave a recovery at 24 h, 10 μg/mL ([5]; buffer pH 7 (10% ethanol)) of 99.3% and a recovery at 48 h, 10 μg/mL ([5]; buffer pH 7 (10% ethanol)) of 97.8%.
